Where two headings read alike, the source gives them in different places.
What was measured:
[1] = Stability during reversed-phase chromatography with 0.1% TFA in water; assay type: physicochemical; conditions: 0.1% TFA in water (pH 2) as a co-solvent
From the text: A combination of radio-TLC, and normal-phase and reversed-phase HPLC was used to verify that the final product was indeed IBG and not the 3-iodobenzyl alcohol. Very little if any of 3-iodobenzyl alcohol was detected in the reaction mixture. In addition, the final product bound to AGT specifically (vide infra), which further supports its authenticity. […] This may be due to the lack of water in the reaction mixture or a rate factor may be involved. Both IBG and FBG were stable during reversed-phase chromatography involving 0.1% TFA in water (pH 2) as a co-solvent.

human AGT = target: T1, human AGT (Homo sapiens, UniProt P16455); experiment: Depletion (inactivation) of cellular AGT activity in CHO cells transfected with pCMV-AGT; assay type: cell-based
T1 construct: expressed in transfected cells; host or cells: CHO-K1 cells, geneticin-selected clones, plasmid pCMV-AGT
T1 sequence (P16455 1-207): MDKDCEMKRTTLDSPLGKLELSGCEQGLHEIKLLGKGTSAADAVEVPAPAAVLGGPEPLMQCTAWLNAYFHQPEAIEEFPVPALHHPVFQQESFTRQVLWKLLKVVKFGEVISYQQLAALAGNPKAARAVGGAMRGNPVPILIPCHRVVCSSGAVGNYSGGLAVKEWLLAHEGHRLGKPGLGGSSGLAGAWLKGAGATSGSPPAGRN
Description: FIG. 8 is a graph showing depletion of cellular AGT activity by unlabeled 6-(4-fluoro-benzyloxy)-9H-purin-2-ylamine (O^6-4-fluorobenzylguanine (FBG)) and 6-(iodo-benzyloxy)-9H-purin-2-ylamine (O^6-iodobenzylguanine (IBG)). CHO cells transfected with pCMV-AGT were incubated with varying concentrations of IBG (▪) or FBG ([…]) for 4 hours, and the AGT activity associated with the cells was determined. The results are expressed as the percentage of the AGT activity present in cell cultures that were not treated with FBG or IBG.
CHO-K1 cells were maintained in αMEM (Gibco, Grand Island, N.Y.) containing 10% fetal bovine serum. […]
Inactivation of cellular AGT was measured by adding varying concentrations of FBG or IBG to cell cultures that had reached 80-90% confluence. […] AGT activity was measured by assaying the loss of [^3H]—O^6-methylguanine from a [^3H] methylated calf thymus DNA substrate as described by, e.g., Dolan et al., PNAS, 87:5368-5372 (1990). The results are expressed as the percentage of the AGT activity present in cell cultures that were not treated with FBG or IBG. […]
Because IBG is a new compound, its ability to deplete AGT was determined using CHO cells transfected with pCMV-AGT to express AGT. In parallel, the ability of FBG to deplete AGT under the same conditions also was measured. […]

[2] = target: T2, Purified human AGT with a (His)6 tag (Homo sapiens, UniProt P16455); experiment: In vitro binding of radiolabeled FBG or IBG to purified AGT (TCA precipitation); conditions: for maximum observed AGT to BSA binding ratio: 10 μg AGT vs 10 μg BSA (nonspecific protein); for unlabeled compound concentration above which saturation was observed: binding to purified AGT
T2 construct: (His)6
T2 sequence (P16455 1-207): T1 sequence (P16455 1-207)
Description: FIG. 9 is a graph showing binding of [^18F] FBG to purified AGT as a function of unlabeled FBG concentration. […] FBG was incubated for 30 minutes at 37° C., in the presence or absence of increasing amounts of unlabeled FBG, with 10 μg of AGT ([…]), or to control for nonspecific binding, 10 μg of BSA (▴) in a Tris-buffer. The protein-associated activity was determined by TCA precipitation.
IBG to purified AGT as a function of unlabeled IBG concentration. […] IBG with AGT ([…]) or BSA (▴).
Purified human AGT with a (His)6 tag was generously provided by Dr. Anthony E. Pegg of Hershey Medical Center, Pennsylvania State University. […] The incubation carried out in 0.1 ml 50 mM Tris-Cl, pH 7.5, 5 mM DTT, 0.1 mM EDTA in the presence of 10 μg calf thymus DNA. […] The precipitated proteins were collected on GF-C (Whatman) filters, which were washed extensively with 5% TCA. The results are expressed as the percentage of input activity retained on the filter. For each concentration, the assay was performed in triplicate.
To investigate whether AGT recognizes radiolabeled FBG and IBG as substrates, the efficacy of transfer of their radiolabeled benzyl groups to AGT was determined using the purified protein. […] The preparation of ^13C-and ^14C-labeled O^6-benzylguanosines has been reported by, e.g., Madelmont et al., J. Lab. Comp.

Row | SMILES | stability during reversed-phase chromatography [1] | maximum observed AGT to BSA binding ratio [2] | unlabeled compound concentration above which saturation was observed [2] | other results
1 | Nc1nc(OCc2ccc(F)cc2)c2nc[nH]c2n1 [FBG, 6-(4-fluoro-benzyloxy)-9H-purin-2-ylamine, reference compound] | stable | – | – | IC50 (human AGT; CHO cells transfected with pCMV-AGT, 4 hours of drug treatment, read-out: IC50 for depleting AGT): 0.05 µM; IC50 ([2]; 10 μg AGT, 30 minutes at 37° C., read-out: IC50 (binding to purified AGT as a function of unlabeled compound concentration)): 5 µM
2 | Nc1nc(OCc2cccc(I)c2)c2[nH]cnc2n1 [IBG, 6-(3-Iodo-benzyloxy)-9H-purin-2-ylamine] | stable | – | – | IC50 (human AGT): 0.015 µM; IC50 [2]: ~6 µM
3 | Nc1nc(OCc2ccc([18F])cc2)c2nc[nH]c2n1 [[^18F]FBG, 6-(4-[^18F]Fluoro-benzyloxy)-9H-purin-2-ylamine] | – | 661 | higher than 2 μM | percent of input activity that bound to AGT, maximum ([2]; at 0.5 μM of unlabeled FBG, 10 μg AGT, 30 minutes at 37° C.): about 90%
4 | Nc1nc(OCc2cccc([131I])c2)c2nc[nH]c2n1 [[^131I]IBG, 6-(3-[^131I]Iodo-benzyloxy)-9H-purin-2-ylamine] | – | 35 | higher than 3 μM | percent of radiolabeled compound bound to AGT ([2]; over a wide range of unlabeled IBG concentrations, 10 μg AGT, 30 minutes at 37° C.): About 60%
